Measured values from ChEMBL document CHEMBL4011582, “Human drug-induced liver injury severity is highly associated with dual inhibition of liver mitochondrial function and bile salt export pump” (Hepatology, 2014).

Tests used:
clinical = settings: human
Liver = type: ADME, mitochondria, Rattus norvegicus, Sprague-Dawley
Bile salt export pump = Bile salt export pump (Homo sapiens, UniProt O95342); type: ADME
Bile salt export pump, sequence (O95342 whole entry): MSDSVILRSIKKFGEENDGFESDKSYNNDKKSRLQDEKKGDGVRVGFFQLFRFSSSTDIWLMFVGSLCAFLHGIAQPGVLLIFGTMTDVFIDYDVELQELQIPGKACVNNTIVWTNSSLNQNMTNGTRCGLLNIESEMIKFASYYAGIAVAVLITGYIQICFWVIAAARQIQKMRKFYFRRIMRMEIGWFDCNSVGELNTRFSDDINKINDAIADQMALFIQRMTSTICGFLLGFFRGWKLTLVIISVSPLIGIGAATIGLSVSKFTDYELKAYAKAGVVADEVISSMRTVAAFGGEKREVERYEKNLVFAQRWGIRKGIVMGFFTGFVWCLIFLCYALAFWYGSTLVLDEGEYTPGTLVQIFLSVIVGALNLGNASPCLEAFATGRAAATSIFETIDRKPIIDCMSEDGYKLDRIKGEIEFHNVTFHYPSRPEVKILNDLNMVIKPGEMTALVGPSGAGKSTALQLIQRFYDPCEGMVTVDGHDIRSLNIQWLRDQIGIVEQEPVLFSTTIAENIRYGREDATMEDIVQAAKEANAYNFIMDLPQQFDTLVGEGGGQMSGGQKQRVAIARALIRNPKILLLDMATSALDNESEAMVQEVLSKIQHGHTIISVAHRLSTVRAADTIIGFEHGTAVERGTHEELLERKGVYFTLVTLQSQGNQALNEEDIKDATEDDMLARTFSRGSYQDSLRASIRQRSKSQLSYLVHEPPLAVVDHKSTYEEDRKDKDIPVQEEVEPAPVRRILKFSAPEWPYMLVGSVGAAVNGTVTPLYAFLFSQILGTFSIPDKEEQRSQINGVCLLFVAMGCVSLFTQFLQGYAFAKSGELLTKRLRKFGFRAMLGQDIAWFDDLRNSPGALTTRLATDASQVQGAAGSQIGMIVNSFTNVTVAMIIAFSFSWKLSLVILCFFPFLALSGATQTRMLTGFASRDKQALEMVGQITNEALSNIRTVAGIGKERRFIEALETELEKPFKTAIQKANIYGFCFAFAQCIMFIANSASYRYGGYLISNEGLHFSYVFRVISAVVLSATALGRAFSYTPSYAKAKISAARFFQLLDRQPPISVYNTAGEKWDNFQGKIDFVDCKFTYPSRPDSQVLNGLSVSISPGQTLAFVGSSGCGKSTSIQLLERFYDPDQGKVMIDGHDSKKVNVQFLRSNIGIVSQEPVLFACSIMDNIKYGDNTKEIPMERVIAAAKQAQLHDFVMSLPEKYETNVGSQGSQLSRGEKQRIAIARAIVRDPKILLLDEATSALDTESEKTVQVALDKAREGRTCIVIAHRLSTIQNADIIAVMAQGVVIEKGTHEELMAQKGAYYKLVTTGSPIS

| SMILES | Cmax (clinical) | IC50 (Liver) | IC50 (Bile salt export pump; read-out: IC50) | IC50 (Bile salt export pump) |
| --- | --- | --- | --- | --- |
| CCCc1nc2c(C)cc(-c3nc4ccccc4n3C)cc2n1Cc1ccc(-c2ccccc2C(=O)O)cc1 | 851 nM |  |  |  |
| CC(C)(C)NC(=O)[C@@H]1C[C@@H]2CCCC[C@@H]2CN1C[C@@H](O)[C@H](Cc1ccccc1)NC(=O)[C@H](CC(N)=O)NC(=O)c1ccc2ccccc2n1 | 3360 nM | Non-Toxic |  |  |
| CC(C)CN(C[C@@H](O)[C@H](Cc1ccccc1)NC(=O)O[C@H]1CCOC1)S(=O)(=O)c1ccc(N)cc1 | 15200 nM | Non-Toxic |  |  |
| CC(C)(C)NC(=O)[C@@H]1CN(Cc2cccnc2)CCN1C[C@@H](O)C[C@@H](Cc1ccccc1)C(=O)N[C@H]1c2ccccc2C[C@H]1O.O | 11700 nM | Non-Toxic |  |  |
| Cc1c(O)cccc1C(=O)N[C@@H](CSc1ccccc1)[C@H](O)CN1C[C@H]2CCCC[C@H]2C[C@H]1C(=O)NC(C)(C)C | 7040 nM |  |  |  |
| CC(C)(C)NCC(O)c1ccc(O)c(CO)c1 (centres undefined) [ALBUTEROL] | 58 nM | Non-Toxic |  |  |
| Oc1ncnc2[nH]ncc12 [ALLOPURINOL] |  |  | > 100 µM |  |
| CCCN(CCC)C(=O)Cc1c(-c2ccc(Cl)cc2)nc2ccc(Cl)cn12 [ALPIDEM] | 285 nM |  |  |  |
| C[C@H]1C[C@H]2[C@@H]3CCC4=CC(=O)C=C[C@]4(C)[C@@]3(Cl)[C@@H](O)C[C@]2(C)[C@@]1(O)C(=O)CO [BECLOMETHASONE] | 0.2 nM | Non-Toxic | 10.3 µM |  |
| CCc1oc2ccccc2c1C(=O)c1cc(Br)c(O)c(Br)c1 [BENZBROMARONE] | 4340 nM |  | 15.9 µM |  |
| CC(O)(CS(=O)(=O)c1ccc(F)cc1)C(=O)Nc1ccc(C#N)c(C(F)(F)F)c1 (centres undefined) [BICALUTAMIDE] | 1970 nM |  | 29.3 µM |  |
| COc1ccccc1Oc1c(NS(=O)(=O)c2ccc(C(C)(C)C)cc2)nc(-c2ncccn2)nc1OCCO [BOSENTAN] | 7430 nM |  | 29 µM |  |
| CN(C)CCC(c1ccc(Br)cc1)c1ccccn1 (centres undefined) [BROMPHENIRAMINE] | 36 nM | Non-Toxic |  |  |
| O=C1CC2(CCCC2)CC(=O)N1CCCCN1CCN(c2ncccn2)CC1 [BUSPIRONE] | 5 nM | Non-Toxic | > 100 µM |  |
| C[C@H](CCC(=O)O)[C@H]1CC[C@H]2[C@@H]3[C@H](O)C[C@@H]4C[C@H](O)CC[C@]4(C)[C@H]3CC[C@]12C [CHENODIOL] | 8000 nM | Non-Toxic | 10.6 µM |  |
| CCC(=O)O[C@]1(C(=O)CCl)[C@@H](C)C[C@H]2[C@@H]3CCC4=CC(=O)C=C[C@]4(C)[C@@]3(F)[C@@H](O)C[C@@]21C [CLOBETASOL PROPIONATE] | 43 nM | Non-Toxic |  |  |
| CC(C)/N=c1\cc2n(-c3ccc(Cl)cc3)c3ccccc3nc-2cc1Nc1ccc(Cl)cc1 [CLOFAZIMINE] | 1480 nM | Non-Toxic |  |  |
| Clc1ccccc1C(c1ccccc1)(c1ccccc1)n1ccnc1 [CLOTRIMAZOLE] | 87 nM |  |  |  |
| C#C[C@]1(O)CC[C@H]2[C@@H]3CCC4=Cc5oncc5C[C@]4(C)[C@H]3CC[C@@]21C [DANAZOL] | 750 nM |  |  |  |
| O=C(O)Cc1ccccc1Nc1c(Cl)cccc1Cl [DICLOFENAC] |  |  | 44 µM |  |
| CC(CCc1ccc(O)cc1)NCCc1ccc(O)c(O)c1 (centres undefined) [DOBUTAMINE] | 1340 nM | Non-Toxic | > 100 µM |  |

| SMILES | Cmax (clinical) | IC50 (Liver) | IC50 (Bile salt export pump; read-out: IC50) | IC50 (Bile salt export pump) |
| --- | --- | --- | --- | --- |
| Clc1ccc(COC(Cn2ccnc2)c2ccc(Cl)cc2Cl)cc1 (centres undefined) [ECONAZOLE] | 1 nM |  |  | 13.4 µM |
| CCC(=O)O[C@H]1[C@H](O[C@@H]2[C@@H](C)[C@H](O[C@H]3C[C@@](C)(OC)[C@@H](O)[C@H](C)O3)[C@@H](C)C(=O)O[C@H](CC)[C@@](C)(O)[C@H](O)[C@@H](C)C(=O)[C@H](C)C[C@@]2(C)O)O[C@H](C)C[C@@H]1N(C)C.CCCCCCCCCCCCOS(=O)(=O)O [ERYTHROMYCIN ESTOLATE] | 4200 nM |  |  |  |
| C#C[C@]1(OC(C)=O)CC[C@H]2[C@@H]3CCC4=C[C@@H](OC(C)=O)CC[C@@H]4[C@H]3CC[C@@]21C [ETHYNODIOL DIACETATE] | 29 nM |  | 62 µM |  |
| CC(C)OC(=O)C(C)(C)Oc1ccc(C(=O)c2ccc(Cl)cc2)cc1 [FENOFIBRATE] | 12100 nM |  | 41 µM |  |
| CC(C)(C)NC(=O)[C@H]1CC[C@H]2[C@@H]3CC[C@H]4NC(=O)C=C[C@]4(C)[C@H]3CC[C@]12C [FINASTERIDE] | 99 nM | Non-Toxic |  |  |
| CCOC(=O)c1ncn2c1CN(C)C(=O)c1cc(F)ccc1-2 [FLUMAZENIL] | 1120 nM | Non-Toxic | > 100 µM |  |
| CC(C)C(=O)Nc1ccc([N+](=O)[O-])c(C(F)(F)F)c1 [FLUTAMIDE] | 362 nM |  | 68 µM |  |
| CC(C)n1c(/C=C/C(O)CC(O)CC(=O)O)c(-c2ccc(F)cc2)c2ccccc21 (centres undefined) [FLUVASTATIN] | 663 nM | Non-Toxic |  |  |
| Nc1nc(=O)c2nc(CNc3ccc(C(=O)N[C@@H](CCC(=O)O)C(=O)O)cc3)cnc2[nH]1 [FOLIC ACID] | 135 nM | Non-Toxic |  |  |
| NS(=O)(=O)c1cc(C(=O)O)c(NCc2ccco2)cc1Cl [FUROSEMIDE] | 18100 nM |  |  |  |
| COc1cc2ncnc(Nc3ccc(F)c(Cl)c3)c2cc1OCCCN1CCOCC1 [GEFITINIB] | 356 nM |  |  |  |
| CCC1=C(C)CN(C(=O)NCCc2ccc(S(=O)(=O)NC(=O)N[C@H]3CC[C@H](C)CC3)cc2)C1=O [GLIMEPIRIDE] | 1120 nM | Non-Toxic | 34 µM |  |
| COc1ccc(Cl)cc1C(=O)NCCc1ccc(S(=O)(=O)NC(=O)NC2CCCCC2)cc1 [GLYBURIDE] | 210 nM |  |  |  |
| Cc1ccc(NC(=O)c2ccc(CN3CCN(C)CC3)cc2)cc1Nc1nccc(-c2cccnc2)n1 [IMATINIB] | 7090 nM | Non-Toxic |  |  |
| CCCCC1=NC2(CCCC2)C(=O)N1Cc1ccc(-c2ccccc2-c2nnn[nH]2)cc1 [IRBESARTAN] | 3500 nM | Non-Toxic |  |  |
| CC1=C(/C=C/C(C)=C/C=C/C(C)=C\C(=O)O)C(C)(C)CCC1 [ISOTRETINOIN] | 2870 nM |  |  |  |
| CC(=O)N1CCN(c2ccc(OCC3COC(Cn4ccnc4)(c4ccc(Cl)cc4Cl)O3)cc2)CC1 (centres undefined) [KETOCONAZOLE] | 12500 nM |  |  |  |
| CS(=O)(=O)CCNCc1ccc(-c2ccc3ncnc(Nc4ccc(OCc5cccc(F)c5)c(Cl)c4)c3c2)o1 [LAPATINIB] | 4180 nM | Non-Toxic |  |  |
| N[C@@H](Cc1cc(I)c(Oc2ccc(O)c(I)c2)c(I)c1)C(=O)O [LIOTHYRONINE] | 108 nM |  |  |  |
| CN(C)C(=O)C(CCN1CCC(O)(c2ccc(Cl)cc2)CC1)(c1ccccc1)c1ccccc1 [LOPERAMIDE] | 8 nM | Non-Toxic | 67 µM |  |
| CCCCc1nc(Cl)c(CO)n1Cc1ccc(-c2ccccc2-c2nnn[nH]2)cc1 [LOSARTAN] | 651 nM | Non-Toxic |  |  |

| SMILES | Cmax (clinical) | IC50 (Liver) | IC50 (Bile salt export pump; read-out: IC50) | IC50 (Bile salt export pump) |
| --- | --- | --- | --- | --- |
| CC[C@H](C)C(=O)O[C@H]1C[C@@H](C)C=C2C=C[C@H](C)[C@H](CC[C@@H]3C[C@@H](O)CC(=O)O3)[C@H]21 [LOVASTATIN] | 25 nM | Non-Toxic |  |  |
| Cc1cccc(Nc2ccccc2C(=O)O)c1C [MEFENAMIC ACID] | 26900 nM |  | 57 µM |  |
| Cc1ncc2n1-c1ccc(Cl)cc1C(c1ccccc1F)=NC2 [MIDAZOLAM] | 650 nM | Non-Toxic |  |  |
| CCc1nn(CCCN2CCN(c3cccc(Cl)c3)CC2)c(=O)n1CCOc1ccccc1 [NEFAZODONE] | 6800 nM |  | 7 µM |  |
| COC(=O)C1=C(C)NC(C)=C(C(=O)OCCN(C)Cc2ccccc2)C1c1cccc([N+](=O)[O-])c1 (centres undefined) [NICARDIPINE] | 81 nM |  |  |  |
| COC(=O)C1=C(C)NC(C)=C(C(=O)OC)C1c1ccccc1[N+](=O)[O-] [NIFEDIPINE] |  | Non-Toxic | 69 µM |  |
| COCCOC(=O)C1=C(C)NC(C)=C(C(=O)OC(C)C)C1c1cccc([N+](=O)[O-])c1 (centres undefined) [NIMODIPINE] | 195 nM |  |  |  |
| COC(=O)C1=C(C)NC(C)=C(C(=O)OCC(C)C)C1c1ccccc1[N+](=O)[O-] (centres undefined) [NISOLDIPINE] | 12.9 nM | Non-Toxic |  |  |
| CCN(CC)CC#CCOC(=O)C(O)(c1ccccc1)C1CCCCC1 (centres undefined) [OXYBUTYNIN] | 22 nM | Non-Toxic |  |  |
| CC(=O)O[C@H]1C(=O)[C@@]2(C)[C@H]([C@H](OC(=O)c3ccccc3)[C@]3(O)C[C@H](OC(=O)[C@H](O)[C@@H](NC(=O)c4ccccc4)c4ccccc4)C(C)=C1C3(C)C)[C@]1(OC(C)=O)CO[C@@H]1C[C@@H]2O [PACLITAXEL] |  | Non-Toxic |  |  |
| CC(COc1ccccc1)N(CCCl)Cc1ccccc1 (centres undefined) [PHENOXYBENZAMINE] | 197 nM | Non-Toxic |  |  |
| Cc1ccc(N(CC2=NCCN2)c2cccc(O)c2)cc1 [PHENTOLAMINE] | 86 nM | Non-Toxic |  |  |
| CCc1ccc(CCOc2ccc(CC3SC(=O)NC3=O)cc2)nc1 (centres undefined) [PIOGLITAZONE] | 2950 nM |  |  |  |
| CC(=O)[C@H]1CC[C@H]2[C@@H]3CCC4=CC(=O)CC[C@]4(C)[C@H]3CC[C@]12C [PROGESTERONE] | 193 nM |  |  |  |
| CO[C@H]1/C=C/O[C@@]2(C)Oc3c(C)c(O)c4c(c3C2=O)C2=NC3(CCN(CC(C)C)CC3)NC2=C(NC(=O)/C(C)=C\C=C\[C@H](C)[C@H](O)[C@@H](C)[C@@H](O)[C@@H](C)[C@H](OC(C)=O)[C@@H]1C)C4=O [RIFABUTIN] | 685 nM | Non-Toxic |  |  |
| CC(C)c1nc(CN(C)C(=O)N[C@H](C(=O)N[C@@H](Cc2ccccc2)C[C@H](O)[C@H](Cc2ccccc2)NC(=O)OCc2cncs2)C(C)C)cs1 [RITONAVIR] | 19700 nM | Non-Toxic |  |  |
| CNC(=O)c1cc(Oc2ccc(NC(=O)Nc3ccc(Cl)c(C(F)(F)F)c3)cc2)ccn1 [SORAFENIB] | 132 nM |  |  |  |
| CN1CCN(CCCN2c3ccccc3Sc3ccc(C(F)(F)F)cc32)CC1 [TRIFLUOPERAZINE] | 5.3 nM | Non-Toxic |  |  |
| Cc1c(C)c2c(c(C)c1O)CCC(C)(COc1ccc(CC3SC(=O)NC3=O)cc1)O2 (centres undefined) [TROGLITAZONE] | 6390 nM |  |  |  |
| COc1cc(C(=O)NS(=O)(=O)c2ccccc2C)ccc1Cc1cn(C)c2ccc(NC(=O)OC3CCCC3)cc12 [ZAFIRLUKAST] | 1210 nM |  |  |  |
